Where “and” joins values, the source holds several entries; their conditions need not be identical. Equal entries are not always repeated. Where two headings read alike, the source gives them in different places.
Experiments:
[1] = biological target: T1, YCF1 (vacuolar membrane vesicles purified from DTY165 cells) (Saccharomyces cerevisiae, UniProt P39109); experiment: [3H]DNP-GS uptake by vacuolar membrane vesicles purified from DTY165 cells; assay type: biochemical; details: for DNP-GS uptake as percentage of control plus the compound indicated: 10 min
T1 construct: endogenous in cells; host or cells: S. cerevisiae DTY165 (wild type YCF1), vacuolar membrane vesicles
T1 sequence (P39109 whole entry): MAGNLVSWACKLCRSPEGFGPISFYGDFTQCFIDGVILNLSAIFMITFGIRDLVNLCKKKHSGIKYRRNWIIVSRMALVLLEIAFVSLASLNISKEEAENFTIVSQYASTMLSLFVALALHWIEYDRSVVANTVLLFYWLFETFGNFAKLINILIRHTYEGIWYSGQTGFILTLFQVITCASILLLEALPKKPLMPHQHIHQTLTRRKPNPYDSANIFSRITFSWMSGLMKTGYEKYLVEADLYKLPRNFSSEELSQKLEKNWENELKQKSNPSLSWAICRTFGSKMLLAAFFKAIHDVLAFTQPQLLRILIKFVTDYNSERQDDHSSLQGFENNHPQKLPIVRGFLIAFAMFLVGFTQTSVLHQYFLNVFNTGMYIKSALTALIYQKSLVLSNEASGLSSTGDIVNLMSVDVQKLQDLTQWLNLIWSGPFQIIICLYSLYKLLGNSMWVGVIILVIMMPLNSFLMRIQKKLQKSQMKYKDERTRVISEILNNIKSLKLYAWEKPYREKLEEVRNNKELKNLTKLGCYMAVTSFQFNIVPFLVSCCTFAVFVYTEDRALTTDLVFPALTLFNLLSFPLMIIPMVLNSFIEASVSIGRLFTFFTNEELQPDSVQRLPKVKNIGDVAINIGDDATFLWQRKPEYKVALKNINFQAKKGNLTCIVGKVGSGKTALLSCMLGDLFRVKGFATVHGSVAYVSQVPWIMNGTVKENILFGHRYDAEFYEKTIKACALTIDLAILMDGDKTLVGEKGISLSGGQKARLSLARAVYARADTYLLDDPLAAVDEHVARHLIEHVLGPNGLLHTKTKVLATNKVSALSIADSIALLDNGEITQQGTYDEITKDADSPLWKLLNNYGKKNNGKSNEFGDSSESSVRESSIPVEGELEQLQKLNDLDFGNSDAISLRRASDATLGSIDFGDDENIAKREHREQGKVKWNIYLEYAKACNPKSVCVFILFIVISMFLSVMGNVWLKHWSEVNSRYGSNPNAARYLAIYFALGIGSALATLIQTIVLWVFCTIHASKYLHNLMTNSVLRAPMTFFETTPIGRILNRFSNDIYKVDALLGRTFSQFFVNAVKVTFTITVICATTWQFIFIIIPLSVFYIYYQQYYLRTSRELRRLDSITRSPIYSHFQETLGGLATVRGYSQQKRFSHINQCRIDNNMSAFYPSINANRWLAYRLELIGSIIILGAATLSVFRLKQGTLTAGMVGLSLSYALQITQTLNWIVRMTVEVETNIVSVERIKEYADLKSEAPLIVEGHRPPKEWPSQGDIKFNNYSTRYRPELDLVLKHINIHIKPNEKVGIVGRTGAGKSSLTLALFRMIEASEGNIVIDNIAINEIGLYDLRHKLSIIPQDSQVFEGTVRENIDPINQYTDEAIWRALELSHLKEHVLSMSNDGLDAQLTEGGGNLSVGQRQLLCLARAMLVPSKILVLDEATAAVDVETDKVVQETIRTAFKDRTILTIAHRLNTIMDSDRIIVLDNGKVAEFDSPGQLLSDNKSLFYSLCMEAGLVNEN
Protocol: (§1) For the routine preparation of vacuolar membrane vesicles, 15 ml of stationary phase cultures of DTY165 or DTY167 were diluted into 1-liter volumes of fresh YPD medium, grown for 24 hours at 30° C. to an OD600 nm of approximately 0.8 and collected by centrifugation. After washing with distilled water, the cells were converted to spheroplasts with Zymolyase 20T (ICN) (Kim et al., 1994, supra) and intact vacuoles were isolated by flotation centrifugation of spheroplast lysates on Ficoll 400 step gradients as described by Roberts et al. (1991, Methods. Enzymol. 194:644-661). Both the spheroplast lysis buffer and Ficoll gradients contained 2 mg/ml bovine serum albumin, 1 μg/ml aprotinin, 1 μg/ml leupeptin, 1 μg/ml pepstatin, and 1 mM PMSF to minimize proteolysis. The resulting vacuole fraction was vesiculated in 5 mM MgCl2, 25 mM KCl, 10 mM Tris-Mes (pH 6.9) containing 2 mg/ml bovine serum albumin, 1 μg/ml aprotinin, 1 μg/ml leupeptin, 1 μg/ml pepstatin, and 1 mM PMSF, pelleted by centrifugation at 37,000× g for 25 min, and resuspended in suspension medium (1.1 M glycerol, 2 mM dithiothreitol, 1 mM Tris-EGTA, 2 mg/ml bovine serum albumin, 1 μg/ml aprotinin, 1 μg/ml leupeptin, 1 μg/ml pepstatin, 1 mM PMSF, 5 mM Tris-Mes, pH 7.6) (Kim et al., 1995, J. Biol. Chem. 270:2630-2635).
(§2) Unless otherwise indicated, [^3 H]DNP-GS uptake was measured at 25° C. in 200 μl reaction volumes containing 3 mM ATP, 3 mM MgSO4, 5 μM gramicidin-D, 10 mM creatine phosphate, 16 units/ml creatine kinase, 50 mM KC 1, 1 mg/ml bovine serum albumin, 400 mM sorbitol, 25 mM Tris-Mes (pH 8.0), and 66.2 μM [^3 H]DNP-GS (8.7 mCi/mmol) (Li et al., 1995, supra). […] Uptake was initiated by the addition of vacuolar membrane vesicles (10-15 μg of membrane protein), brief mixing of the samples on a vortex mixer and uptake was then allowed to proceed for 1-60 minutes. Uptake was terminated by the addition of 1 ml of ice-cold wash medium (400 mM sorbitol, 3 mM Tris-Mes, pH 8.0) and vacuum filtration of the suspension through prewetted Millipore HA cellulose nitrate membrane filters (pore diameter, 0.45 μm). The filters were rinsed twice with 1 ml of ice-cold wash medium and air-dried, and radioactivity was determined by liquid scintillation counting in BCS mixture (Amersham Corp.). Nonenergized [^3 H]DNP-GS uptake and extravesicular solution trapped on the filters were enumerated by the same procedure except that ATP and Mg^2 +were omitted from the uptake medium.

[2] = tested on: vacuolar membrane vesicles purified from DTY167 cells (ycf1Δ mutant); assay type: biochemical, Saccharomyces cerevisiae; details: for DNP-GS uptake as percentage of control plus the compound indicated: 10 min
Protocol: as §1, §2

[3] = biological target: T1, YCF1 (vacuolar membrane vesicles purified from DTY165 cells); experiment: biochemical; assay type: biochemical; details: for 109Cd.GS2 uptake as percentage of control: 10 min
Protocol: (§3) In experiments involving cadmium transport, dithiothreitol and EGTA were removed from the suspension medium to prevent the attenuation of YCF1-dependent Cd^2+ transport otherwise exerted by these compounds. Vesiculated vacuolar membranes were subjected to three cycles of 50-fold dilution into simplified suspension medium (1.1 M glycerol, 5 mM Tris-Mes, pH 8.0), centrifugation at 100,000× g for 35 minutes and resuspension in the same medium before use.
(§4) Singly radiolabeled ^109 Cd.GSn and doubly radio-labeled ^109 Cd[^3 H].GS^n complexes were prepared by sequential gel-filtrationand anion-exchange chromatography of the reaction products generated by incubating 20 mM ^109 CdSO4 (78.4 mCi/mmol) with 40 mM GSH or 40 mM [^3 H]GSH (240 mCi/mmol) in 15 ml 10 mM phosphate buffer (pH 8.0) containing 150 mM KNO3 at 45° C. for 24 hours. For gel-filtration, 2 ml aliquots of the reaction mixture were applied to a column (40×1.5 cm ID) packed with water-equilibrated Sephadex G-1 5, eluted with deionized water and ^109 Cd and/or ^3 H in the fractions was measured by liquid scintillation counting. The fractions encompassed by each of the two ^109 Cd.GSn peaks identified were pooled, lyophilized and redissolved in 4 ml of loading buffer (5 mM Tris-Mes, pH 8.0). For anion-exchange chromatography, 0.5 ml aliquots of the resuspended lyophilizates from gel-filtration chromatography were applied to a Mono-Q HR5/5 column (Pharmacia) equilibrated with the same buffer. Elution was with a linear gradient of NaCl (0.5 ml/minute; 0-500 mM) dissolved in loading buffer. The individual fractions corresponding to the major peaks of ^109 Cd obtained from the Mono-Q column (one each for the peaks resolved by gel-filtration chromatography) were pooled, lyophilized and resuspended in 4 ml deionized water after liquid scintillation counting.
(§5) MgATP-energized, uncoupler-insensitive ^109 Cd^2+ uptake by vacuolar membrane vesicles was measured at 25° C. in 200 μl reaction volumes containing 3 mM ATP, 3 mM MgSO4, 5 μM gramicidin-D, 10 mM creatine phosphate, 16 units/ml creatine kinase, 50 mM KCl, 400 mM sorbitol, 25 mM Tris-Mes (pH 8.0) and the indicated concentrations of ^109 CdSO4, GSH or ^109 Cd- and/or ^3 H-labeled purified Cd.GSn complexes as described herein except that the wash media contained 100 μM CdSO4 in addition to sorbitol (400 mM) and Tris-Mes (3 mM, pH 8.0).

[4] = tested on: vacuolar membrane vesicles purified from DTY167 cells (ycf1Δ mutant); assay type: biochemical, Saccharomyces cerevisiae; details: for 109Cd.GS2 uptake as percentage of control: 10 min
Protocol: as §3, §4, §5

[5] = 66.2 μM DNP-GS, 3 mM MgATP (omitted with MgAMP-PNP), MgAMP-PNP 3 mM, bafilomycin A1 0.5 μM, FCCP 5 μM, gramicidin D 5 μM, NH4Cl 1 mM
[6] = 50 μM 109Cd.GS2, bafilomycin A1 0.5 μM, FCCP 5 μM, gramicidin-D 5 μM, NH4Cl 1 mM
[7] = 5 μM gramicidin D, read-out: I50 for MgATP-dependent, uncoupler-insensitive DNP-GS uptake

Molecule	DNP-GS uptake plus the compound indicated [1, 5]	DNP-GS uptake as percentage of control plus the compound indicated ([1]; as Table 1 concentrations)	DNP-GS uptake plus the compound indicated [2, 5]	DNP-GS uptake as percentage of control plus the compound indicated ([2]; as Table 1 concentrations)	109Cd.GS2 uptake plus addition [3, 6]	109Cd.GS2 uptake as percentage of control ([3]; as Table 7 concentrations)	decrease of MgATP-dependent Cd.GS2 uptake ([3]; text to Table 7)	109Cd.GS2 uptake plus addition [4, 6]	109Cd.GS2 uptake as percentage of control ([4]; as Table 7 concentrations)	further results
MgATP										Vmax(MgATP) of uncoupler-insensitive DNP-GS uptake ([1]; 66.2 μM DNP-GS, 5 μM gramicidin D): 38.4±5.6 nmol/mg/10 minutes; DNP-GS uptake as percentage of control, MgATP omitted ([1]; --MgATP, 66.2 μM DNP-GS): 2.8%; DNP-GS uptake, MgATP omitted ([1]; --MgATP, 66.2 μM DNP-GS): 2.2 ± 0.4 nmol/mg/10 minutes; Km ([1]; read-out: Km(MgATP) of uncoupler-insensitive DNP-GS uptake, 66.2 μM DNP-GS, 5 μM gramicidin D, 10 minutes): 86.5 ± 29.5 µM; DNP-GS uptake as percentage of control, MgATP omitted ([2]; --MgATP, 66.2 μM DNP-GS): 9.7%; DNP-GS uptake, MgATP omitted ([2]; --MgATP, 66.2 μM DNP-GS): 1.5 ± 0.6 nmol/mg/10 minutes
Nc1ncnc2c1ncn2[C@@H]1O[C@H](COP(=O)(O)OP(=O)(O)NP(=O)(O)O)[C@@H](O)[C@H]1O [MgAMP-PNP]	2.5 ± 0.5 nmol/mg/10 minutes	3.2%	1.4 ± 0.3 nmol/mg/10 minutes	9.1%						
CO/C1=C\C(C)=C\[C@@H](C)[C@@H](O)[C@@H](C)C/C(C)=C/C=C/[C@H](OC)[C@@H]([C@@H](C)[C@@H](O)[C@H](C)[C@@]2(O)C[C@@H](O)[C@H](C)[C@@H](C(C)C)O2)OC1=O [Bafilomycin A1]	43.2 ± 1.0 nmol/mg/10 minutes	55.6%	4.3 ± 0.3 nmol/mg/10 minutes	27.9%	81.8 ± 6.0 nmol/mg/10 minutes	76.6%	22%	12.8 ± 3.6 nmol/mg/10 minutes	74.0%	
CC[C@]1(O)C[C@@H]2CN(CCc3c([nH]c4ccccc34)[C@@](C(=O)OC)(c3cc4c(cc3OC)N(C)[C@H]3[C@@](O)(C(=O)OC)[C@H](OC(C)=O)[C@]5(CC)C=CCN6CC[C@]43[C@@H]65)C2)C1 [Vinblastine]										IC50 [1, 7]: 89 µM and 88.8 µM; IC50 [2, 7]: > 500 µM
N#CC(C#N)=NNc1ccc(OC(F)(F)F)cc1 [FCCP]										109Cd.GS2 uptake plus addition [3]: 62.2 ± 11.4 nmol/mg/10 minutes; decrease of MgATP-dependent Cd.GS2 uptake ([3]; vacuolar membrane vesicles): 22%; 109Cd.GS2 uptake as percentage of control ([3]; vacuolar membrane vesicles): 58.8; DNP-GS uptake plus the compound indicated [1]: 47.4 ± 1.7 nmol/mg/10 minutes; DNP-GS uptake as percentage of control plus the compound indicated ([1]; dty165 vacuolar membrane vesicles): 61.0; DNP-GS uptake plus the compound indicated [2]: 6.4 ± 0.3 nmol/mg/10 minutes; DNP-GS uptake as percentage of control plus the compound indicated ([2]; dty167 vacuolar membrane vesicles): 41.8; 109Cd.GS2 uptake plus addition [4]: 10.2 ± 1.6 nmol/mg/10 minutes; 109Cd.GS2 uptake as percentage of control ([4]; vacuolar membrane vesicles): 59.0
Cl.N [NH4 Cl, Ammonium chloride]	69.1 ± 2.9 nmol/mg/10 minutes	88.9%	14.9 ± 0.7 nmol/mg/10 minutes	96.8%	89.8 ± 8.2 nmol/mg/10 minutes	84.8%	15%	10.0 ± 1.7 nmol/mg/10 minutes	57.8%	

— US6166290A, “Glutathione-S-conjugate transport in plants” (The Trustees of the University of Pennsylvania, priority 1997, dated 2000)
